Assay results from patent US20050152858A1, “Solubilizing agents for active or functional organic compounds” (ISP INVESTMENTS INC., priority 2003, published 2005).
Read-outs that look alike come from different tables or passages of the source.

Tests used:
[1] = Solubility of solid organic sunscreens in various solvents
Protocol: Predetermined solutions (w/w) were prepared at 40-50° C. using a given solvent-sunscreen combination. The solutions were allowed to stand for 1 week at 25° C. in a constant temperature chamber. A small seed crystal was initially added at 25° C. to hasten equilibration. Solubility was measured by GLC using standard solutions to calibrate the instrument.

[2] = Enhancement of UVA absorption (UV spectrum of sunscreen in solvent); assay type: physicochemical; settings: for λmax of E-517 in the solvent: 10 mg sunscreen E-517 (avobenzone) in 1 L of solvent; for λmax of E-567 in the solvent: 10 mg sunscreen E-567 (benzophenone-3) in 1 L of solvent
Protocol: A 10-mg portion of sunscreen was dissolved in 1 L of solvent, and the UV spectrum of the solution was measured using a Cary 1 E UV-Visible spectrophotometer.

λmax of E-517 in the solvent [2] [nm]	λmax of E-567 in the solvent [2] [nm]	Structure (SMILES)	further results
		CC(COC(=O)c1ccccc1)OC(=O)c1ccccc1 (centres unmarked) [propylene glycol dibenzoate, Propylene Glycol Dibenzoate]	Solubility of MBC in the solvent [1]: 33 % w/w
362	329	O=C(OCCc1ccccc1)c1ccccc1 [2-phenylethyl benzoate, 2-Phenylethyl Benzoate]	
358	325	CCO [Ethanol, reference compound]	
		O=C(Cc1cccc(C(F)(F)F)c1)OCc1ccccc1 [benzyl α,α,α-trifluoro-m-tolylacetate, Benzyl α,α,α-Trifluoro-m-tolylacetate]	Solubility of Avobenzone in the solvent ([1]; sunscreen Avobenzone, 1 week at 25° C., seeded, GLC): 15 % w/w; Solubility of MBC in the solvent ([1]; sunscreen MBC (4-methylbenzylidene camphor), 1 week at 25° C., seeded, GLC): 34 % w/w; Solubility of Oxybenzone in the solvent ([1]; sunscreen Oxybenzone, 1 week at 25° C., seeded, GLC): 28 % w/w
